Measurements as given in ChEMBL document CHEMBL1201862, “PubChem BioAssay data set” (2004).
Activity calls are given as the source filed them.

How the values were obtained:
[1] = Luminescence Cell-Based Dose Response HTS to Identify Activators of Luciferase Translation or Activity in H4 […] Cells. [Related pubchem assays: 1829 (Project Summary), 1814 (Primary HTS)]; assay type: functional
H4 = experiment: Luminescence Cell-Based Dose Response HTS to Identify Activators of 5'UTR Stem-Loop Driven Prion Protein mRNA Translation in H4 Neuroglioblastoma Cells. [Related pubchem assays: 1829 (Project Summary), 1814 (Primary HTS)]; assay type: functional; details: Homo sapiens
[2] = biological target: T1, Oxysterols receptor LXR-beta (Homo sapiens, UniProt P55055); assay type: functional, cell-based;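 note: agonist activity at LXR measured by a cell-based luminescence readout across a dose range, run as a counterscreen for daf-12 agonists; HEK293 cells with Gal4-LXR fusion and GAL4-driven luciferase reporter; potency for activation of Gal4-LXR reporter so compounds are agonists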
T1 sequence (P55055 whole entry): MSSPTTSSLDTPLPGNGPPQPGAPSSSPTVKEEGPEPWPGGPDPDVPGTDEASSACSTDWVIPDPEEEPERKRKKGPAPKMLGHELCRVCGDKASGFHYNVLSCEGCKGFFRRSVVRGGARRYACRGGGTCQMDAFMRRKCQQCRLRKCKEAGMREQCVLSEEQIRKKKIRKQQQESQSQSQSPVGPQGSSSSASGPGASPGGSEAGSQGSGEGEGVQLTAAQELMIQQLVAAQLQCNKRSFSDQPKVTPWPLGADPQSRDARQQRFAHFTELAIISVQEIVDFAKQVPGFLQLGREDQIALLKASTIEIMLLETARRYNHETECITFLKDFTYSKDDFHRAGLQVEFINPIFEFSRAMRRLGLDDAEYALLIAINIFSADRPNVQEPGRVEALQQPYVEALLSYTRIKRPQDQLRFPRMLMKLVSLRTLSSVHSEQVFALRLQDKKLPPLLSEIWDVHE

[3] = biological target: T2, Corticotropin-releasing factor receptor 2/Corticotropin-releasing factor-binding protein (Homo sapiens, UniProt P24387+Q13324); experiment: Dose Response confirmation of uHTS hits for small molecule antagonists of the CRF-binding protein and CRF-R2 receptor complex.; assay type: functional; details: read-out: IC50_Mean
T2 sequence (Q13324 whole entry): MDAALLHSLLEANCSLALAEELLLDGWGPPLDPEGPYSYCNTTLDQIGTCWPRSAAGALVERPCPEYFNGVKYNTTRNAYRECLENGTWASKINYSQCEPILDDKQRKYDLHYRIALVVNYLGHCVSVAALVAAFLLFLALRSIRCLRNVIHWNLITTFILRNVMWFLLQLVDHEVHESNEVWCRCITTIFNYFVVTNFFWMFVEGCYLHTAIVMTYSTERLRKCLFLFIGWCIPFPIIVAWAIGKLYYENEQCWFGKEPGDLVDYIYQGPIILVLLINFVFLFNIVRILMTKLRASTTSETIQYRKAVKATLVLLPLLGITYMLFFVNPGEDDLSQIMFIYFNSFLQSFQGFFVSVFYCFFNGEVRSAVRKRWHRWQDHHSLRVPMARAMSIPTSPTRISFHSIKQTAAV
T2 sequence (P24387 whole entry): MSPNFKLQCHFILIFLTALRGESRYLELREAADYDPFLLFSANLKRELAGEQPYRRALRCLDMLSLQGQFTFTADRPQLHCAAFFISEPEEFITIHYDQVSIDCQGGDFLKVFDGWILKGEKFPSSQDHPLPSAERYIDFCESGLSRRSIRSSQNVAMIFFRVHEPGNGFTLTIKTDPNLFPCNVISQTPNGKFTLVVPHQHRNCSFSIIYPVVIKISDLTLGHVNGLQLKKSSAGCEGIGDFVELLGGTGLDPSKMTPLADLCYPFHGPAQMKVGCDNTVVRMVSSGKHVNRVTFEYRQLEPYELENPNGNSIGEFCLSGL

[4] = biological target: T2, Corticotropin-releasing factor receptor 2/Corticotropin-releasing factor-binding protein; experiment: activators of CRF receptor 2 with binding protein – uHTS hits, confirmation (AID 602473); assay type: functional; details: read-out: EC50_Mean
[5] = CRF-BP/CRF-R2 complex antagonists, dose response, cell-based, uHTS hits, 384-well (AID 651639); assay type: functional, Homo sapiens; details: read-out: IC50_Mean
[6] = inhibitors of HIV Env-driven cell fusion, dose response, cherry-pick (AID 652057); assay type: functional, cell-based
[7] = ZM109 Env clade C HIV-1 fusion inhibitors, dose response, HeLa effector, CEM target cells, luciferase, cherry-pick (AID 652058); assay type: functional, cell-based
[8] = off-target signal loss in HeLa-CEM21 co-culture – HeLa F-luc CTL cells, cherry-picked, counter-screen for HIV-1 Env fusion inhibitor project, dose response (AID 652040); assay type: functional, cell-based;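 note: potency for signal decrease marking cytotoxic or nonspecific inhibition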
[9] = inhibitors of clade B AD8 Env fusion, dose response, cell-based, cherry-pick (AID 652062); assay type: functional;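 note: luciferase signal from cell-cell fusion driven by HIV-1 clade B AD8 Env; potency is for inhibitors of fusion seen as a drop in luminescence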
[10] = biological target: T3, Methionyl-tRNA synthetase, putative (Trypanosoma brucei brucei, UniProt Q38C91); assay type: functional, Trypanosoma brucei brucei strain 927/4 GUTat10.1
T3 sequence (Q38C91 whole entry): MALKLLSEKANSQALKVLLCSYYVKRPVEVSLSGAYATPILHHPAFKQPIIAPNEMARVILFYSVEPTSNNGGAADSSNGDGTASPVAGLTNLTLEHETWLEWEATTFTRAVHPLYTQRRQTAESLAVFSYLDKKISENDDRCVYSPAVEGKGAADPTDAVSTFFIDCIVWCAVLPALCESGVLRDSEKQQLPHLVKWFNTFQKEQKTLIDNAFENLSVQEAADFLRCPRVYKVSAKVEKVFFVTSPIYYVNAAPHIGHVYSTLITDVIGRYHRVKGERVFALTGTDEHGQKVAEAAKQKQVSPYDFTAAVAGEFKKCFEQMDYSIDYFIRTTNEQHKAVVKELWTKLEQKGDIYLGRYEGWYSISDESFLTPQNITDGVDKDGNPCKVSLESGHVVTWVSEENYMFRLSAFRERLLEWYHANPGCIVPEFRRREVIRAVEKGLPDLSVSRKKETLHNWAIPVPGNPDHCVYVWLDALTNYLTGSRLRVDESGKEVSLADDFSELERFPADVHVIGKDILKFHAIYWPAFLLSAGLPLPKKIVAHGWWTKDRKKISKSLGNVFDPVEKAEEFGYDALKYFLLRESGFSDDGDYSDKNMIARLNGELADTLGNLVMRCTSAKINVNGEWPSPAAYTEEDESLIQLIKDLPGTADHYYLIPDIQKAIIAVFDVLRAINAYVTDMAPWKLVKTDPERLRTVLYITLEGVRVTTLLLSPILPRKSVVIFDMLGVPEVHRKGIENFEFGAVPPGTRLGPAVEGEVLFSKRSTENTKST

[11] = Counterscreen for inhibitors of Trypanosoma brucei methionyl tRNA synthetase (MetRS): Luminescence-based cell-based high throughput dose response assay to identify compounds that are cytotoxic to Jurkat human T lymphocyte cells.; assay type: functional
[12] = biological target: T3, Methionyl-tRNA synthetase, putative; assay type: functional, Trypanosoma brucei brucei strain 927/4 GUTat10.1; remark: listed apart in the source
[13] = inhibitors of firefly luciferase expression or activity, dose response, H4 neuroglioma cells, luminescence (AID 1990); assay type: functional, cell-based
[14] = Luminescence Cell-Based Dose Response HTS to Identify Inhibitors of 5'UTR Stem-Loop Driven Prion Protein mRNA Translation in H4 Neuroglioblastoma Cells. [Related pubchem assays: 1827 (Project Summary), 1813 (Primary HTS)]; assay type: functional
[15] = inhibitors of SNCA 5'UTR-driven reporter translation, confirmation, H4 neuroglioma cells, luminescence (AID 1988); assay type: functional, cell-based
[16] = biological target: T4, Calpain-2 catalytic subunit (Sus scrofa, UniProt P43367); experiment: pig calpain II inhibitor potency, dose response, biochemical, fluorogenic peptide substrate (AID 1420); assay type: functional
T4 sequence (P43367 whole entry): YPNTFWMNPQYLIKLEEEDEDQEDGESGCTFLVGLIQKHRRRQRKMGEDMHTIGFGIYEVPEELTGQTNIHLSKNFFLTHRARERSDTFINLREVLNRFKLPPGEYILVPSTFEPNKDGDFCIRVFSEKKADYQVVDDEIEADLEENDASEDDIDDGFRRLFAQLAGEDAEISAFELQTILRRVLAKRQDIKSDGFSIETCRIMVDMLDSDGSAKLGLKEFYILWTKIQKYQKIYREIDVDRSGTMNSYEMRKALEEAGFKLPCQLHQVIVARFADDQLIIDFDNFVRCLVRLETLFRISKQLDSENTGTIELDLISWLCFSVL

[17] = cytotoxicity in HEK-293T cells, dose response, cytotoxicity control for TCR NF-kB inhibitor project, luminescence, T-cell screen hits (AID 489026); assay type: functional, cell-based;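 note: cells exposed to compound about 14 hours before the viability readout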
[18] = NIH-3T3 fibroblast cytotoxicity, dose response, cytotoxicity control, cell-based, fluorescence, Alamar Blue, secondary assay (AID 2327); assay type: functional;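 note: NIH-3T3 mouse fibroblasts cultured with fluconazole at 8 µg/mL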
[19] = C. albicans growth with fluconazole, confirmation, fluorescence, retest (AID 2467); assay type: functional, cell-based
[20] = biological target: T5, Microphthalmia-associated transcription factor (Homo sapiens, UniProt O75030); experiment: TRPM1 promoter luciferase signal decrease, dose response, MITF inhibitor project, cell-based, SK-MEL-5, cherry-picked, set 3 (AID 493073); assay type: functional
T5 sequence (O75030 whole entry): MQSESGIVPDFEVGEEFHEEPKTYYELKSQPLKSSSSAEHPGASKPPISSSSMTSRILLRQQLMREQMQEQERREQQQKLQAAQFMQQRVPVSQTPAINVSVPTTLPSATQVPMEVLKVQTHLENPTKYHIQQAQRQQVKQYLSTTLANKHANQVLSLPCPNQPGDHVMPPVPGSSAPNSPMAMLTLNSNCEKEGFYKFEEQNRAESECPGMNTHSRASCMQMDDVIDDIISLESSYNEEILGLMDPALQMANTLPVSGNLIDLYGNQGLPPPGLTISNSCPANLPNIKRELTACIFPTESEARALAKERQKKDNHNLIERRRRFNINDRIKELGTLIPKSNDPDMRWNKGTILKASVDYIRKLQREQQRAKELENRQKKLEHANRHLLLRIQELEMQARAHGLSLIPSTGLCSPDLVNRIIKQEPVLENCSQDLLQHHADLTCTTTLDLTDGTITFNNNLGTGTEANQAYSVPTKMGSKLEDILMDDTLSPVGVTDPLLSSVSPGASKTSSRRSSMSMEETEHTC

For C/C(=N\c1ccccc1)c1sc2ccccc2c1O, the EC50 [1] was 2.22 µM (active), the EC50 (H4) was 0.153 µM (active) and the EC50 [2] was > 67.6 µM (inactive).

For Cc1nc2ccccc2n1CCOc1ccc([N+](=O)[O-])cc1, the IC50 [3] was < 0.368 µM (active), the EC50 [4] was > 53 µM (inactive) and the IC50 [5] was 0.972 µM (active).

In the case of O=C(NCC(=O)N1CCN(c2ncccn2)CC1)c1ccccc1OC(F)F, the AC50 [6] is reported as 2.79 µM (active), the AC50 [7] is reported as 2.86 µM (active) and the AC50 [8] is reported as 3.72 µM (active). The AC50 [9] was 13.1 µM (active).

With C[C@H]1CN([C@@H](C)CO)C(=O)c2c(c3ccccc3n2C)-c2ccccc2CO[C@H]1CN(C)C(=O)Nc1cccc(F)c1 the AC50 [6] was < 0.26 µM (active), the AC50 [7] was < 0.26 µM (active) and the AC50 [8] was 0.362 µM (active). For the same compound, the AC50 [9] was 2.88 µM (active).

For COc1ccccc1CN(C)C(=O)C(c1ccccc1)c1ccccc1, the IC50 [3] was 8.1 µM (active), the EC50 [4] was > 53 µM (inactive) and the IC50 [5] was > 20 µM (inactive).

In the case of Cc1ccc(C)c(S(=O)(=O)C(C#N)c2nc3ccccc3nc2N2CCOCC2)c1 (stereo not given), the IC50 [3] is reported as 39.8 µM (active), the EC50 [4] is reported as 35.8 µM (active) and the IC50 [5] is reported as > 20 µM (inactive).

For COc1ccccc1-c1c[nH]c(C(O)c2cc(Cl)cc(Cl)c2)n1 (stereo not given), the IC50 [10] was 3.26 µM (active), the IC50 [11] was 83.3 µM (inactive) and the IC50 [12] was 2.38 µM (active).

For Cc1ccc(C(c2nnnn2CS(=O)(=O)c2ccc(C)cc2)N2CCCC2)cc1 (stereo not given), the AC50 [6] was 3.22 µM (active), the AC50 [7] was 3.55 µM (active) and the AC50 [8] was 3.97 µM (active). For the same compound, the AC50 [9] was 2.35 µM (active).

For O=C(COc1ccc(C(=O)c2ccccc2)cc1)NCc1ccc(F)cc1, the EC50 [13] was > 120 µM (not active), the EC50 [14] was 10 µM (active) and the EC50 [15] was 7.25 µM (active). The IC50 [16] was > 50 µM (not active) and the IC50 [17] was > 80 µM (inactive).

For O=C(NCC(O)COc1ccc([N+](=O)[O-])cc1)Nc1ccccc1 (stereo not given), the IC50 [10] was 15.6 µM (inactive), the IC50 [11] was 83.4 µM (inactive) and the IC50 [12] was 9.32 µM (active).

For O=C(CCC(=O)Nc1cccc([N+](=O)[O-])c1)N/N=C/c1cccs1, the IC50 [10] was 8.34 µM (active), the IC50 [11] was 83.3 µM (inactive) and the IC50 [12] was 5.26 µM (active).

In the case of Cc1ccc(-c2cc(-c3ccc(C)cc3)[n+](C)o2)cc1.[O-][Cl+3]([O-])([O-])[O-], the EC50 [18] is reported as > 160 µM (inactive), the EC50 [19] is reported as > 38 µM (not active) and the AC50 [20] is reported as 8.24 µM (active).

In the case of COCCNC(=O)/C(C#N)=C/c1cc(C)n(C2CCCCC2)c1C, the EC50 [2] is reported as > 67.5 µM (inactive).

With N=C1c2ccccc2CN1CC(=O)c1ccccc1 the EC50 [1] was 10.6 µM (active), the EC50 (H4) was 8 µM (active) and the EC50 [2] was > 67.6 µM (inactive).
